The structures appear in SMILES notation.

What is called melting point is the temperature, or range, at which the solid turns liquid.

Take `C[C@H]1CN(C2=NC(=O)/C(=C/c3cccc(-c4cc(F)c(O)c(C56CC7CC(CC(C7)C5)C6)c4)c3)S2)C[C@H](C)O1` (relative stereo) [Compound 50, 5-[3-(3-Adamantan-1-yl-4-hydroxy-5-fluoro-phenyl)benzylidene]-2-(trans-2,6-dimethylmorpholin-4-yl)-thiazol-4-one]: the melting point lay within 262 to 264 °C.

`O=C1N=C(N2CCOCC2)S/C1=C\c1cccc(-c2ccc(O)c(C34CC5CC(CC(C5)C3)C4)c2)c1` [Compound 2, 5-[3-(3-Adamantan-1-yl-4-hydroxy-phenyl)benzylidene]-2-morpholin-4-yl-thiazol-4-one] yielded a melting point of 325 to 328 °C.

The compound `O=C1N=C(N2CCCCC2)S/C1=C\c1ccc(-c2ccc(O)c(C34CC5CC(CC(C5)C3)C4)c2)cc1` [Compound 4, 5-[4-(3-Adamantan-1-yl-4-hydroxy-phenyl)benzylidene]-2-piperidin-1yl-thiazol-4-one] gave a melting point of 325 to 328 °C.

Compound `CN1CCN(C2=NC(=O)/C(=C/c3cccc(-c4ccc(O)c(C56CC7CC(CC(C7)C5)C6)c4)c3)S2)CC1` [Compound 8, 5-[3-(3-Adamantan-1-yl-4-hydroxy-phenyl)benzylidene]-2-(4-methyl-piperazin-1-yl)-thiazol-4-one] registered a melting point of 291 to 294 °C.

For `CN1CCN(C2=NC(=O)/C(=C/c3cccc(-c4cc(F)c(O)c(C56CC7CC(CC(C7)C5)C6)c4)c3)S2)CC1` [Compound 9, 5-[3-(3-Adamantan-1-yl-4-hydroxy-5-fluoro-phenyl)benzylidene]-2-(4-methyl-piperazin-1-yl)-thiazol-4-one], the melting point was in the range of 226 to 228 °C.

In turn, `CCN(CC)C1=NC(=O)/C(=C/c2cccc(-c3ccc(O)c(C45CC6CC(CC(C6)C4)C5)c3)c2)S1` [Compound 10, 5-[3-(3-Adamantan-1-yl-4-hydroxy-phenyl)benzylidene]-2-diethylamino-thiazol-4-one] had a melting point of 275 to 277 °C.

For `O=C1N=C(N2CCCC2)S/C1=C\c1cccc(-c2cc(F)c(O)c(C34CC5CC(CC(C5)C3)C4)c2)c1` [Compound 13, 5-[3-(3-Adamantan-1-yl-4-hydroxy-5-fluoro-phenyl)benzylidene]-2-pyrrolidine-1-yl-thiazol-4-one-thiazol-4-one], the melting point is 309 to 311 °C.

Regarding `O=C1N=C(N2CCCCCC2)S/C1=C\c1cccc(-c2ccc(O)c(C34CC5CC(CC(C5)C3)C4)c2)c1` [Compound 14, 5-[3-(3-Adamantan-1-yl-4-hydroxy-phenyl)benzylidene]-2-azepan-1-yl-thiazol-4-one], the melting point is 321 to 324 °C.

Compound `O=C1N=C(N2CCCCCCC2)S/C1=C\c1cccc(-c2ccc(O)c(C34CC5CC(CC(C5)C3)C4)c2)c1` [Compound 16, 5-[3-(3-Adamantan-1-yl-4-hydroxy-phenyl)benzylidene]-2-azocan-1-yl-thiazol-4-one] returned a melting point of 284 to 286 °C.

On to `O=C1N=C(N2CCN(c3cccc(C(F)(F)F)c3)CC2)S/C1=C\c1cccc(-c2cc(F)c(O)c(C34CC5CC(CC(C5)C3)C4)c2)c1` [Compound 19, 5-[3-(3-Adamantan-1-yl-4-hydroxy-5-fluoro-phenyl)benzylidene]-2-[4-(3-trifluoromethyl-phenyl)-piperazon-1-yl]-thiazol-4-one], for which the melting point was 291 to 293 °C.

As to `CN(C)CCN(Cc1ccccc1)C1=NC(=O)/C(=C/c2cccc(-c3cc(F)c(O)c(C45CC6CC(CC(C6)C4)C5)c3)c2)S1` [Compound 20, 5-[3-(3-Adamantan-1-yl-4-hydroxy-5-fluoro-phenyl)benzylidene]-2[benzyl-(2-dimethylamino-ethyl)-amino]-thiazol-4-one], the melting point was in the range of 242 to 246 °C.

In the case of `O=C1N=C(NCCN2CCOCC2)S/C1=C\c1cccc(-c2cc(F)c(O)c(C34CC5CC(CC(C5)C3)C4)c2)c1` [Compound 24, 5-[3-(3-Adamantan-1-yl-4-hydroxy-5-fluoro-phenyl)benzylidene]-2-(2-morpholino-1-yl-ethylamino)-thiazol-4-one], the melting point is 180 to 193 °C.

These data come from patent US20040097566A1, “2-Substituted thiazolidinone and oxazolidinone derivatives for the inhibition of phosphatases and the treatment of cancer” (priority 2001, published 2004).
